In the experiment the test system is MV-4-11 cells. The experiment can be described thus: Gene expression microarray analysis (Affymetrix PrimeView) and GSEA. The following applies: ProbeSet 11723141_at; LIST B. The arrangement: RFU PODN (11730768_x_at) / Fold change /veh PODN (11730768_x_at) / RFU LINC00158 (11744669_a_at) / Fold change /veh LINC00158 (11744669_a_at) / RFU DUSP10 (11751237_a_at) / Fold change /veh DUSP10 (11751237_a_at) / RFU ID3 (11757404_x_at) / Fold change /veh ID3 (11757404_x_at) / RFU PLEKHG5 (11737974_s_at) / Fold change /veh PLEKHG5 (11737974_s_at) / RFU LRRC4B (11730491_at) / Fold change /veh LRRC4B (11730491_at) / RFU GIMAP4 (11747438_a_at) / Fold change /veh GIMAP4 (11747438_a_at) / RFU KRT8 (11758183_x_at) / Fold change /veh KRT8 (11758183_x_at) / RFU CNN1 (11734310_a_at) / Fold change /veh CNN1 (11734310_a_at) / RFU VPS37D (11726825_at) / Fold change /veh VPS37D (11726825_at) / RFU C10orf10 (11716522_x_at) / Fold change /veh C10orf10 (11716522_x_at) / RFU KIR2DL2 /// KIR2DL4 /// KIR2DL5A /// KIR2DL5B /// KIR2DS1 /// KIR2DS2 /// KIR2DS3 /// KIR2DS4 /// KIR3DL3 /// KIR3DL3 /// KIR3DS1 (11738374_at) / Fold change /veh KIR2DL2 /// KIR2DL4 /// KIR2DL5A /// KIR2DL5B /// KIR2DS1 /// KIR2DS2 /// KIR2DS3 /// KIR2DS4 /// KIR3DL3 /// KIR3DL3 /// KIR3DS1 (11738374_at) / RFU C1QL1 (11718748_at) / Fold change /veh C1QL1 (11718748_at) / RFU TMPRSS4 (11747572_a_at) / Fold change /veh TMPRSS4 (11747572_a_at) / RFU HAMP (11756126_x_at) / Fold change /veh HAMP (11756126_x_at) / RFU RNFT2 (11725882_a_at) / Fold change /veh RNFT2 (11725882_a_at) / RFU NR4A2 (11747474_a_at) / Fold change /veh NR4A2 (11747474_a_at) / RFU ABCC12 (11746883_a_at) / Fold change /veh ABCC12 (11746883_a_at) / RFU TMEM136 (11760407_x_at) / Fold change /veh TMEM136 (11760407_x_at) / RFU CLDN22 /// WWC2 (11732394_at) / Fold change /veh CLDN22 /// WWC2 (11732394_at) / RFU HLA-DPB1 (11760878_x_at) / Fold change /veh HLA-DPB1 (11760878_x_at) / RFU SPINT1 (11716480_a_at) / Fold change /veh SPINT1 (11716480_a_at) / RFU GAP43 (11754022_s_at) / Fold change /veh GAP43 (11754022_s_at) / RFU A4GNT (11735810_at) / Fold change /veh A4GNT (11735810_at) / RFU PRB3 (11715151_x_at) / Fold change /veh PRB3 (11715151_x_at) / RFU TUBB4B (11761932_at) / Fold change /veh TUBB4B (11761932_at) / RFU CAPN14 (11732068_a_at) / Fold change /veh CAPN14 (11732068_a_at) / RFU TMCC2 (11721928_a_at) / Fold change /veh TMCC2 (11721928_a_at) / RFU IRGQ (11745062_a_at) / Fold change /veh IRGQ (11745062_a_at) / RFU FAM174B (11720279_a_at) / Fold change /veh FAM174B (11720279_a_at) / RFU TMPRSS4 (11748680_a_at) / Fold change /veh TMPRSS4 (11748680_a_at) / RFU FAM212B (11763350_a_at) / Fold change /veh FAM212B (11763350_a_at) / RFU PLEKHG5 (11743358_a_at) / Fold change /veh PLEKHG5 (11743358_a_at) / RFU ZSCAN30 (11745921_a_at) / Fold change /veh ZSCAN30 (11745921_a_at) / RFU CMKLR1 (11741424_a_at) / Fold change /veh CMKLR1 (11741424_a_at) / RFU LOC101060620 /// MAPK8IP1 (11723275_at) / Fold change /veh LOC101060620 /// MAPK8IP1 (11723275_at) / RFU SPTSSB (11747773_x_at) / Fold change /veh SPTSSB (11747773_x_at) / RFU PRSS12 (11739890_at) / Fold change /veh PRSS12 (11739890_at) / RFU BIN1 (11741810_x_at) / Fold change /veh BIN1 (11741810_x_at) / RFU WNT11 (11732464_a_at) / Fold change /veh WNT11 (11732464_a_at) / RFU C10orf10 (11716521_a_at) / Fold change /veh C10orf10 (11716521_a_at) / RFU C5orf56 (11738089_at) / Fold change /veh C5orf56 (11738089_at) / RFU CYB561 (11721691_x_at) / Fold change /veh CYB561 (11721691_x_at) / RFU ANKRD19P (11752326_a_at) / Fold change /veh ANKRD19P (11752326_a_at) / RFU OR2T12 /// OR2T33 /// OR2T8 (11738714_s_at) / Fold change /veh OR2T12 /// OR2T33 /// OR2T8 (11738714_s_at) / RFU VCAN (11748164_a_at) / Fold change /veh VCAN (11748164_a_at) / RFU JSRP1 (11732532_at) / Fold change /veh JSRP1 (11732532_at) / RFU KRTAP10-11 (11738290_x_at) / Fold change /veh KRTAP10-11 (11738290_x_at) / RFU MYO3A (11730013_a_at) / Fold change /veh MYO3A (11730013_a_at) / RFU EBF3 (11725865_a_at) / Fold change /veh EBF3 (11725865_a_at) / RFU CAMK2N1 (11719241_x_at) / Fold change /veh CAMK2N1 (11719241_x_at) / RFU C5orf56 (11738088_a_at) / Fold change /veh C5orf56 (11738088_a_at) / RFU OLFML3 (11715873_a_at) / Fold change /veh OLFML3 (11715873_a_at) / RFU LOC100653217 /// NTM (11731650_a_at) / Fold change /veh LOC100653217 /// NTM (11731650_a_at) / RFU MAPK11 (11762145_a_at) / Fold change /veh MAPK11 (11762145_a_at) / RFU FIZ1 (11724087_x_at) / Fold change /veh FIZ1 (11724087_x_at) / RFU OASL (11726364_x_at) / Fold change /veh OASL (11726364_x_at) / RFU SOX15 (11748057_x_at) / Fold change /veh SOX15 (11748057_x_at) / RFU CD79A (11719716_a_at) / Fold change /veh CD79A (11719716_a_at) / RFU HIST1H1D (11736915_at) / Fold change /veh HIST1H1D (11736915_at) / RFU CASKIN2 (11723855_a_at) / Fold change /veh CASKIN2 (11723855_a_at) / RFU LOC730098 (11760151_x_at) / Fold change /veh LOC730098 (11760151_x_at) / RFU OR4N2 (11742367_at) / Fold change /veh OR4N2 (11742367_at) / RFU PRRT2 (11749266_a_at) / Fold change /veh PRRT2 (11749266_a_at) / RFU SNX32 (11753110_a_at) / Fold change /veh SNX32 (11753110_a_at) / RFU CDHR5 (11726645_a_at) / Fold change /veh CDHR5 (11726645_a_at) / RFU RCAN1 (11760418_a_at) / Fold change /veh RCAN1 (11760418_a_at) / RFU FAM167A (11723789_a_at) / Fold change /veh FAM167A (11723789_a_at) / RFU FAM26E (11764081_at) / Fold change /veh FAM26E (11764081_at) / RFU ISYNA1 (11749810_s_at) / Fold change /veh ISYNA1 (11749810_s_at) / RFU ACY1 (11761880_at) / Fold change /veh ACY1 (11761880_at) / RFU 11764098_at / Fold change /veh 11764098_at / RFU SAMD14 (11745864_x_at) / Fold change /veh SAMD14 (11745864_x_at) / RFU NPB (11741838_a_at) / Fold change /veh NPB (11741838_a_at) / RFU TMPRSS6 (11731388_a_at) / Fold change /veh TMPRSS6 (11731388_a_at) / RFU KRTAP10-2 (11738614_at) / Fold change /veh KRTAP10-2 (11738614_at) / RFU ARHGAP8 /// PRR5-ARHGAP8 (11727945_x_at) / Fold change /veh ARHGAP8 /// PRR5-ARHGAP8 (11727945_x_at) / RFU KRTAP5-7 /// NADSYN1 (11734609_at) / Fold change /veh KRTAP5-7 /// NADSYN1 (11734609_at) / RFU RASL12 (11751679_a_at) / Fold change /veh RASL12 (11751679_a_at) / RFU CDKN2B (11736163_a_at) / Fold change /veh CDKN2B (11736163_a_at) / RFU PRF1 (11729649_at) / Fold change /veh PRF1 (11729649_at) / RFU, ZNF638 /// ZNF638-IT1 / Fold change vs veh, ZNF638 /// ZNF638-IT1 / RFU, PANK3 / Fold change vs veh, PANK3 / RFU, SH3YL1 / Fold change vs veh, SH3YL1 / RFU, ZEB2 / Fold change vs veh, ZEB2 / RFU, NRIP1 / Fold change vs veh, NRIP1 / RFU, PTTG1IP / Fold change vs veh, PTTG1IP / RFU, CAPN2 / Fold change vs veh, CAPN2 / RFU, MED14 / Fold change vs veh, MED14 / RFU, SNORA58 / Fold change vs veh, SNORA58 / RFU, C1orf63 / Fold change vs veh, C1orf63 / RFU, LRRFIP1 / Fold change vs veh, LRRFIP1 / RFU, NDUFAF7 / Fold change vs veh, NDUFAF7 / RFU, SLC12A2 / Fold change vs veh, SLC12A2 / RFU, IBTK / Fold change vs veh, IBTK / RFU, ESF1 / Fold change vs veh, ESF1 / Fold change vs veh, TMEM50B / RFU, TAOK1 / Fold change vs veh, TAOK1 / RFU, ACBD3 / Fold change vs veh, ACBD3 / RFU, TMA16 / Fold change vs veh, TMA16 / RFU, RWDD3 / Fold change vs veh, RWDD3 / RFU, BCAT1 / Fold change vs veh, BCAT1 / RFU, EDEM3 / Fold change vs veh, EDEM3 / RFU, TMEM33 / Fold change vs veh, TMEM33 / RFU, WDR75 / Fold change vs veh, WDR75 / RFU, AHCTF1 / Fold change vs veh, AHCTF1 / RFU, TFRC / Fold change vs veh, TFRC / RFU, ZDHHC17 / Fold change vs veh, ZDHHC17 / RFU, NOM1 / Fold change vs veh, NOM1 / RFU, ARL8B / Fold change vs veh, ARL8B / RFU, ZBTB11 / Fold change vs veh, ZBTB11 / RFU, TAMM41 / Fold change vs veh, TAMM41 / RFU, KIAA1704 /// LOC100996395 / Fold change vs veh, KIAA1704 /// LOC100996395 / RFU, ING1 / Fold change vs veh, ING1 / RFU, TRMT61B / Fold change vs veh, TRMT61B / RFU, FUBP3 / Fold change vs veh, FUBP3 / RFU, TP53 / Fold change vs veh, TP53 / RFU, TNKS2 / Fold change vs veh, TNKS2 / RFU, ZFP14 / Fold change vs veh, ZFP14 / RFU, ACTR2 / Fold change vs veh, ACTR2 / RFU, PPP3R1 / Fold change vs veh, PPP3R1 / RFU, PIK3R1 / Fold change vs veh, PIK3R1 / RFU, HNRNPA1 / Fold change vs veh, HNRNPA1 / RFU, RNF170 / Fold change vs veh, RNF170 / RFU, ZNF28 / Fold change vs veh, ZNF28 / RFU, RNGTT / Fold change vs veh, RNGTT / RFU, OGT / Fold change vs veh, OGT / RFU, BRD1 / Fold change vs veh, BRD1 / RFU, MARS / Fold change vs veh, MARS / RFU, ZNF655 / Fold change vs veh, ZNF655 / RFU, FAHD1 / Fold change vs veh, FAHD1 / RFU, BDP1 / Fold change vs veh, BDP1 / RFU, LRRCC1 / Fold change vs veh, LRRCC1 / RFU, ARID1A / Fold change vs veh, ARID1A / RFU, ZNF146 / Fold change vs veh, ZNF146 / RFU, ZNF330 / Fold change vs veh, ZNF330 / RFU, GPN3 / Fold change vs veh, GPN3 / RFU, C9orf123 / Fold change vs veh, C9orf123 / RFU, N4BP2L2 / Fold change vs veh, N4BP2L2 / RFU, ARFIP1 / Fold change vs veh, ARFIP1 / RFU, FAM179B / Fold change vs veh, FAM179B / RFU, BCL10 / Fold change vs veh, BCL10 / RFU, UHRF1BP1L / Fold change vs veh, UHRF1BP1L / RFU, BET1 / Fold change vs veh, BET1 / RFU, CNOT2 / Fold change vs veh, CNOT2 / RFU, ZNF268 / Fold change vs veh, ZNF268 / Fold change vs veh, ZNF507 / RFU, DGCR2 / Fold change vs veh, DGCR2 / RFU, WDSUB1 / Fold change vs veh, WDSUB1 / Fold change vs veh, HSP90B1 /// MIR3652 / RFU, ADSS / Fold change vs veh, ADSS / RFU, GK / Fold change vs veh, GK / RFU, ZNF148 / Fold change vs veh, ZNF148 / RFU, TAF9 / Fold change vs veh, TAF9 / RFU, SLC1A5 / Fold change vs veh, SLC1A5 / RFU, SLMO2 / Fold change vs veh, SLMO2 / RFU, ABCC4 / Fold change vs veh, ABCC4 / RFU, LOC101060439 /// RAP1B / Fold change vs veh, LOC101060439 /// RAP1B / RFU, RFX7 / Fold change vs veh, RFX7 / RFU, GTPBP10 / Fold change vs veh, GTPBP10 / RFU, CNEP1R1 / Fold change vs veh, CNEP1R1 / RFU, BIVM-ERCC5 /// ERCC5 / Fold change vs veh, BIVM-ERCC5 /// ERCC5 / RFU, ILF3 / Fold change vs veh, ILF3 / RFU 11762660_at / Fold change /veh 11762660_at / RFU VCAN (11757783_s_at) / Fold change /veh VCAN (11757783_s_at) / RFU DDX43 (11728927_at) / Fold change /veh DDX43 (11728927_at) / RFU KRT8 (11758188_x_at) / Fold change /veh KRT8 (11758188_x_at) / RFU NKD1 (11759106_at) / Fold change /veh NKD1 (11759106_at) / RFU SRD5A1 (11742802_a_at) / Fold change /veh SRD5A1 (11742802_a_at) / RFU TPSAB1 /// TPSB2 (11721975_s_at) / Fold change /veh TPSAB1 /// TPSB2 (11721975_s_at) / RFU GSTM3 (11746129_a_at) / Fold change /veh GSTM3 (11746129_a_at) / RFU IL23R (11737362_x_at) / Fold change /veh IL23R (11737362_x_at) / RFU TMEM51 (11727254_a_at) / Fold change /veh TMEM51 (11727254_a_at) / RFU PIWIL2 (11732686_x_at) / Fold change /veh PIWIL2 (11732686_x_at) / RFU ORM1 (11744905_x_at) / Fold change /veh ORM1 (11744905_x_at) / RFU CCDC152 (11743942_at) / Fold change /veh CCDC152 (11743942_at) / RFU ECM1 (11717891_a_at) / Fold change /veh ECM1 (11717891_a_at) / RFU IL23R (11748794_a_at) / Fold change /veh IL23R (11748794_a_at) / RFU TNFAIP8L3 (11732012_x_at) / Fold change /veh TNFAIP8L3 (11732012_x_at) / RFU MBOAT4 (11741988_at) / Fold change /veh MBOAT4 (11741988_at) / RFU 11764193_at / Fold change /veh 11764193_at / RFU TMEM53 (11763286_at) / Fold change /veh TMEM53 (11763286_at) / RFU MAGEB2 (11727129_at) / Fold change /veh MAGEB2 (11727129_at) / RFU TMEM200A (11744735_a_at) / Fold change /veh TMEM200A (11744735_a_at) / RFU CCDC152 (11751479_a_at) / Fold change /veh CCDC152 (11751479_a_at) / RFU FAM211A (11726209_a_at) / Fold change /veh FAM211A (11726209_a_at) / RFU RGS16 (11746705_a_at) / Fold change /veh RGS16 (11746705_a_at) / RFU VCAN (11755009_s_at) / Fold change /veh VCAN (11755009_s_at) / RFU RHOB (11743442_s_at) / Fold change /veh RHOB (11743442_s_at) / RFU RGS16 (11720943_a_at) / Fold change /veh RGS16 (11720943_a_at) / RFU RGS16 (11720944_at) / Fold change /veh RGS16 (11720944_at) / RFU, VPS4B / Fold change vs veh, VPS4B / RFU, CREB1 / Fold change vs veh, CREB1 / RFU, DNAJC13 / Fold change vs veh, DNAJC13 / RFU, GNAQ / Fold change vs veh, GNAQ / RFU, CDK5R1 / Fold change vs veh, CDK5R1 / RFU, ZRANB3 / Fold change vs veh, ZRANB3 / RFU, CUL4A / Fold change vs veh, CUL4A / RFU, CCNY / Fold change vs veh, CCNY / RFU, UFL1 / Fold change vs veh, UFL1 / RFU, COG3 / Fold change vs veh, COG3 / RFU, DIAPH2 / Fold change vs veh, DIAPH2 / RFU, SKA2 / Fold change vs veh, SKA2 / RFU, AFF3 / Fold change vs veh, AFF3 / RFU, LMF1 / Fold change vs veh, LMF1 / RFU, IPO11 / Fold change vs veh, IPO11 / RFU, DFFB / Fold change vs veh, DFFB / RFU, FOXP1 / Fold change vs veh, FOXP1 / RFU, CARD8 / Fold change vs veh, CARD8 / RFU, STRN3 / Fold change vs veh, STRN3 / RFU, ADK / Fold change vs veh, ADK / RFU, RASSF2 / Fold change vs veh, RASSF2 / RFU, WIPF1 / Fold change vs veh, WIPF1 / RFU, LARP1B / Fold change vs veh, LARP1B / RFU, RASA1 / Fold change vs veh, RASA1 / RFU, RB1 / Fold change vs veh, RB1 / RFU, PPFIA1 / Fold change vs veh, PPFIA1 / RFU, MAT2A / Fold change vs veh, MAT2A / RFU, CCT5 / Fold change vs veh, CCT5 / RFU, WDR92 / Fold change vs veh, WDR92 / RFU, CUX1 / Fold change vs veh, CUX1 / RFU, TTC7A / Fold change vs veh, TTC7A / RFU, TMEM135 / Fold change vs veh, TMEM135 / RFU, DEPTOR / Fold change vs veh, DEPTOR / RFU, CPM / Fold change vs veh, CPM / RFU, DNAJB6 / Fold change vs veh, DNAJB6 / RFU, CACNA2D3 / Fold change vs veh, CACNA2D3 / RFU, DTX4 / Fold change vs veh, DTX4 / RFU, TFCP2 / Fold change vs veh, TFCP2 / RFU, GMCL1 /// GMCL1P1 / Fold change vs veh, GMCL1 /// GMCL1P1 / RFU, AEBP2 / Fold change vs veh, AEBP2 / RFU, SNHG1 /// SNORD22 /// SNORD25 /// SNORD26 /// SNORD27 /// SNORD28 /// SNORD29 /// SNORD31 / Fold change vs veh, SNHG1 /// SNORD22 /// SNORD25 /// SNORD26 /// SNORD27 /// SNORD28 /// SNORD29 /// SNORD31 / Fold change (Aza/veh), C12orf56 (ProbeSet 11735607_a_at) / Fold change (ACY-1035/veh), C12orf56 (ProbeSet 11735607_a_at) / Fold change (Aza/veh), FGFR1OP (ProbeSet 11751329_s_at) / Fold change (ACY-1035/veh), FGFR1OP (ProbeSet 11751329_s_at) / Fold change (Aza/veh), VPS36 (ProbeSet 11739960_a_at) / Fold change (ACY-1035/veh), VPS36 (ProbeSet 11739960_a_at) / RFU SYPL1 (11715823_x_at) / Fold change /veh SYPL1 (11715823_x_at) / RFU IGFBP7 (11715501_s_at) / Fold change /veh IGFBP7 (11715501_s_at) / RFU REEP3 (11722064_at) / Fold change /veh REEP3 (11722064_at) / RFU IGLL1 (11728026_x_at) / Fold change /veh IGLL1 (11728026_x_at): dose or concentration left out as unconfirmed. The experiment is classed as cell-based, human.

SMILES strings stand for the structures.

This note sets out measurements from article PMC5218480 (PLoS ONE, 2017).

As to `Nc1ncn([C@@H]2O[C@H](CO)[C@@H](O)[C@H]2O)c(=O)n1` [azacitidine], the “RFU, ZBTB11” value stood at 125.26 RFU.
